The structures appear in SMILES notation.

Experimental findings from US10800742B2, “Small molecule compounds targeting PBX1 transcriptional complex” (THE JOHNS HOPKINS UNIVERSITY, priority 2015, dated 2020) are described below.

This experiment concerns SKOV3 carboplatin-resistant cancers. The experiment in a line: SKOV3CRLuc subcutaneous xenograft. Format: in vivo, athymic nu/nu mice. The following applies: platinum-resistant mouse tumor model.

Procedure: [MUT] and SKOV3CRLuc cells were injected subcutaneously into the athymic nu/nu mice (3×10^6, n=8 for each group). Parental SKOV3Luc cells were used as a negative control. Mice were intraperitoneally (i.p.) injected with [MUT] (red, 2.5 mg/kg/injection) or DMSO (red arrows) using a 3 days-on 4-days off protocol. Carboplatin (30 mg/kg/injection) was administrated i.p. every other day (green arrows). (B) Tumor volume was measured every other day for 25 to 40 days using a caliper, and luminescence activity was evaluated weekly. (C) Endpoint tumor volumes of [MUT], SKOV3Luc, and SKOV3CRLuc xenografts treated with the indicated drug or drug combination. Student's t-test. (D) Representative bioluminescence images of tumor burden in SKOV3CRLuc-innoculated mice treated with indicated drug. Images captured by the IVIS Spectrum at day 35. […] In vivo bioluminescence images were taken at the same time using the IVIS Spectrum. […] We tested the anti-tumor potency of [MUT]

Take `N.N.O=C([O-])C1(C(=O)[O-])CCC1.[Pt+2]` [carboplatin]: the “anti-tumor potency (tumor growth)” value is reported as “relatively ineffective”.
